The subject of the assay is intestinal adenomas in Min mice (Apc^min/Apc^+). The assay is described as follows: Intestinal tumorigenesis in Min mice fed treatment diets for 10 weeks (adenoma number and size). The assay is classed as in vivo. As to conditions: for Adenoma numbers in the small intestine, Distal / Adenoma numbers in the small intestine, Middle / Adenoma numbers in the small intestine, Proximal / Total Adenoma Diameter in the small intestine / Adenoma numbers in the small intestine, Total: 800 ppm anthocyanins; for Adenoma numbers in the small intestine, Distal / Adenoma numbers in the small intestine, Middle / Adenoma numbers in the small intestine, Proximal / Total Adenoma Diameter in the small intestine: 200 ppm cyanidin or 200 ppm sulindac in drinking water, or 20% cherries diet; for Adenoma numbers in the small intestine, Distal / Adenoma numbers in the small intestine, Middle / Adenoma numbers in the small intestine, Proximal / Total Adenoma Diameter in the small intestine / Adenoma numbers in the small intestine, Total / Colon Total adenoma Volume / Cecal Total adenoma Volume / Cecum adenoma Number / Colon adenoma Number / Mean Adenoma Diameter in the small intestine / Average number of solid tumors, Cecum / Average number of solid tumors, Colon / Average number of solid tumors, Total (cecum and colon): mean ± SEM; for Adenoma numbers in the small intestine, Total: 200 ppm cyanidin or 200 ppm sulindac in drinking water, or 20% freeze-dried cherries in diet; for Colon Total adenoma Volume / Cecal Total adenoma Volume / Cecum adenoma Number / Colon adenoma Number / Mean Adenoma Diameter in the small intestine / Average number of solid tumors, Cecum / Average number of solid tumors, Colon / Average number of solid tumors, Total (cecum and colon): same treatments; for Cecal Total adenoma Volume / Cecum adenoma Number / Colon adenoma Number / Mean Adenoma Diameter in the small intestine: different superscripts = significant differences (P < 0.05); for Average number of solid tumors, Cecum / Average number of solid tumors, Colon / Average number of solid tumors, Total (cecum and colon): three-dimensional raised tumors. An excerpt: Forty-eight Min mice were randomly assigned to five treatment groups at 4-5 weeks of age and fed treatment diets for 10 weeks. The treatments were:
1) Modified AIN-93G control diet, 2) The control diet +800 ppm anthocyanins in drinking water, 3) The control diet+200 ppm cyanidin in drinking water, 4) The control diet+200 ppm sulindac in drinking water, 5) Modified control diet containing 20% freeze dried pitted tart cherries. Only mean diameter, not the number of adenomas in the small intestine was reduced by sulindac, whereas diameter was increased by cherry diet (p<0.05).
All research was conducted with approval of the Michigan State University, East Lansing, Mich., All-University Committee on animal use and care. Mice were housed in MSU Laboratory, Animal Resources maintained facilities. A colony of Min mice was maintained by crossing male Min mice (Apc^min/Apc^+) with normal adult C57BL/6J female mice. Mice were housed in a temperature and humidity-controlled room (20-22° C., 70%) with a 12-h light/dark cycle. At three weeks of age, mice were bled from the dorsal pedal vein (30 μL) for genotyping analysis to identify Apc^min/Apc^+ using polymerase chain reaction (PCR) analysis and subsequent gel electrophoresis analysis. Forty-eight Min mice identified were randomly assigned to five treatment groups (7 to 11 per treatment) at 4 or 5 weeks of age and fed treatment diets for 10 weeks. The treatments were:
1) Modified AIN-93G control diet and 50 ppm ascorbic acid in drinking water (n=11)
2) The control diet+50 ppm ascorbic acid and 800 ppm anthocyanins in drinking water (n=9)
3) The control diet+50 ppm ascorbic acid and 200 ppm cyanidin in drinking water (n=7)
4) The control diet+50 ppm ascorbic acid and 200 ppm sulindac in drinking water (n=10)
5) 20% freeze-dried cherries+50 ppm ascorbic acid in drinking water (n=11).
Ingredient composition of diets is in Table 1. All diets contained 22% protein, 15% fat (soybean oil) and 5% cellulose contents. Distilled water was used for drinking water. Ascorbic acid was added to provide low pH for keeping anthocyanins and cyanidin in solution since they are stable only under pH 7. The concentration of sulindac (200 ppm) was based on the effective range found from most studies that have shown sulindac to reduce intestinal neoplasia. Cyanidin concentration (200 ppm) was matched to that of sulindac. Anthocyanins was tested at the level four times the cyanidin concentration because anthocyanins are the glycosylated cyanidin and the level (800 ppm) has equivalent amount of flavylium cation. Red tart pitted cherries (Peerson Farms, Inc., Shelby, Mich.) were frozen, freeze-dried, ground using plate grinder, and then screened to pass a 1 mm screen before they were incorporated into the diet at the expense of sucrose, cornstarch and dyetrose. One hundred grams of the experimental diet included 23 g of ground cherries to make 20% of cherries in the diet because dry matter of cherries was 75%, whereas that of AIN-93G diet was 91%.
Body weight was measured once a week until mice were sacrificed at the end of treatment period. Upon sacrifice by carbon dioxide asphyxiation, the liver was removed and frozen immediately for confirmatory PCR analysis. The entire small intestine, cecum, and colon were removed from each mouse to determine the number and size of adenomas. The tissues were separated into the following sections: proximal one-third of small intestine, middle one-third of small intestine, distal one-third of small intestine, cecum, and colon. All intestinal sections were opened longitudinally, rinsed thoroughly with water, fixed overnight in 10% neutral-buffered formalin, and then stained with 0.2% methylene blue. Tumor number and size (diameter for flat tumors or volume in the case of three-dimensional tumors) were determined in each intestinal segment on 1 mm grid transparency by direct counting with the aid of a dissecting microscope. […]

Structures are written as SMILES. “Also recorded” adds a separate entry of the source. Marks after values point to notes of the source that are not given here.

Regarding `CC1=C(CC(=O)O)c2cc(F)ccc2/C1=C\c1ccc([S+](C)[O-])cc1` (stereo not drawn) [Sulindac, sulindac], the “Intestinal site of inhibited tumorigenesis (conclusion in words)” value is on record as “inhibits small intestinal tumorigenesis”; the “Number of cecal adenomas compared to controls (in words)” value is “significantly more cecal adenomas than controls; also recorded: significantly higher number of cecal adenomas; also recorded: increased the number of adenomas in cecum and colon”; the “Size (volume) of adenomas in the cecum (in words)” value is listed as “increased”; the “Adenoma numbers in the small intestine, Distal” value is given as 10.0 ± 6.5. In addition, the “Adenoma numbers in the small intestine, Middle” value was 9.1 ± 4.9; the “Adenoma numbers in the small intestine, Proximal” value is 5.6 ± 2.9; the “Total Adenoma Diameter in the small intestine” value is reported as 23.5 ± 18.4 mm; the “Adenoma numbers in the small intestine, Total” value came to 24.7 ± 13.2. The “Colon Total adenoma Volume” value was found to be 3.35 ± 1.88 mm^3, the “Cecal Total adenoma Volume” value was 4.00 ± 0.81^a mm^3, the “Cecum adenoma Number” value is on record as 4.00 ± 0.53^c and the “Colon adenoma Number” value was 5.30 ± 0.67^b. Besides, the “Mean Adenoma Diameter in the small intestine” value was 0.93 ± 0.10^a mm; the “Average number of solid tumors, Cecum” value is listed as 0.20 ± 0.11; the “Average number of solid tumors, Colon” value is 0.20 ± 0.17; the “Average number of solid tumors, Total (cecum and colon)” value came out at 0.40 ± 0.21. The “Trend in number of adenoma in the proximal section of the small intestine (in words)” value (P=0.05) is reported as “reduced”. Also, under “p<0.05”, the “Number of colonic adenomas (in words)” value is recorded as “twice as many adenomas as those of mice in cherry diet”. For the same molecule, under “p<0.05, listed as sulindac”, the “Mean diameter (size) of adenoma in the small intestine, effect compared to control diet (in words)” value is recorded as “significantly reduced the size of adenomas in small intestine”; the “Number of colonic adenomas (in words)” value is “greatest number of colonic adenomas; also recorded: increased the number of adenomas in cecum and colon”.

With `Oc1cc(O)c2cc(O)c(-c3ccc(O)c(O)c3)[o+]c2c1` [Cyanidin], the “Adenoma numbers in the small intestine, Distal” value is given as 20.0 ± 7.8; the “Adenoma numbers in the small intestine, Middle” value was 15.7 ± 5.8; the “Adenoma numbers in the small intestine, Proximal” value worked out at 15.6 ± 3.5; the “Total Adenoma Diameter in the small intestine” value was 67.4 ± 22.0 mm. Besides, the “Adenoma numbers in the small intestine, Total” value was 51.3 ± 15.8; the “Colon Total adenoma Volume” value came to 3.51 ± 2.24 mm^3; the “Cecal Total adenoma Volume” value is given as 0.56 ± 0.96^b mm^3; the “Cecum adenoma Number” value was 0.57 ± 0.63^b. Besides, the “Colon adenoma Number” value was 3.71 ± 0.80^ab; the “Mean Adenoma Diameter in the small intestine” value is given as 1.25 ± 0.11^b mm; the “Average number of solid tumors, Cecum” value turned out to be 0.00 ± 0.13; the “Average number of solid tumors, Colon” value was 0.14 ± 0.21. Also, the “Average number of solid tumors, Total (cecum and colon)” value is listed as 0.14 ± 0.25.

Values taken from US6656914B2, “Method for treating tumors caused by APC gene mutation with anthocyanins and cyanidin” (Board of Trustees of Michigan State University, priority 2000, dated 2003).
